From US6368793B1, “Metabolic selection methods” (MicroGenomics, Inc., priority 1998, dated 2002)

Experiments:
Format in all cases: cell-based
[1] = tested on: Klebsielia oxytoca; test: Compound utilization of environmental isolates (growth on minimal medium); conditions: Kelbsiella oxytoca isolate
Protocol: Samples from diverse natural environments were collected to use for the isolation of microbes that can utilize ascorbic acid (AsA) as the sole carbon source. No bacterial species has previously been reported to grow on AsA minimal medium.
Environmental samples were collected from freshwater lakes, lemon and orange orchards, residential backyard soils, human and animal solid wastes.
Over 100 microbial isolates, capable of forming visible colonies within 20 hours of incubation at 30° C. on M9 minimal medium containing 0.5% AsA, were selected from these samples. These 100 isolates were then screened for their ability to grow on 2-Keto-L-Gulonate (2-KLG) minimal medium.
Thus, Kelbsiella oxytoca was retained as a candidate for genetic engineering of a host strain that can use AsA under controlled conditions for the selection of cloned microbial pathways from 2-KLG to AsA.

[2] = tested on: K. oxytoca strain MGK003; test: Growth of tester strain MGK003 on AsA minimal medium with or without IPTG
Excerpt: To engineer K. oxytoca as a host strain for the selection of biocatalysts which produce AsA, the promoter of the yiaK-S operon was replaced with a DNA fragment that contained the trp-lac hybrid promoter of transcription, the lacO operator, and the lacI^q repressor gene (Brosius, J. 1992. Meth. Enzymol. 216:469-483). This allows the yiaK-S operon, and therefore AsA catabolism, to be turned ON and OFF in a tightly controlled manner in the presence or absence of IPTG, a non-metabolizable inducer of the lac promoter. Practically, a 5-way ligation was set up among: (i) the pMAK705 integration vector which carries a chloramphenicol resistance marker and the thermosensitive origin of replication from plasmid […] (Hamilton, C. M., et al., 1989. J. Bacteriol. 171:4617-4622); (ii) a 0.8 kb fragment containing the 5′ region of the yiaJ gene and its promoter sequences; (iii) the spectinomycin resistance marker retrieved from Staphylococcus aureus Tn554 (Murphy, E. 1985. Mol. Gen. Genet. 200:33-39) to follow integration events; (iv) the lacI^q-lacO-trc promoter fragment retrieved from pSE380 (InVitrogen, Carlsbad, Calif.); and (v) a 1 kb fragment containing the 5′ end of yiaK, including its ribosome binding site for translation initiation while excluding the promoter sequences of the yiaK-S operon (FIG. 10). […]

[3] = tested on: K. oxytoca strain MGK003 cosmid clones; test: Growth of selected cosmid library clones of MGK003 on 2-KLG with or without IPTG; conditions: within 20 h at 37° C.
Protocol: Prior to transfection of K. oxytoca strain MGK003 with the packaging mixture, the tester strain was transformed with plasmid pCB382 expressing the E. coli lamB gene that functions as λ receptor, which appears to be absent or non-functional in most Klebsiella strains (De Vries, G. E., et al., 1984. Proc. Natl. Acad. Sci. USA 81:6080-6084). The resulting MGK003 [λ^s] strain was transfected with the packaged products as follows:
6. The remainder was centrifuged at 3000 g for 5 min and was resuspended in 1 mL of M9 minimal medium supplemented with 10 μM IPTG (IPTG concentration can be varied up to 100 μM), and aliquots (200 μL) were plated on M9 plates containing 0.5% 2-KLG and 50 μM IPTG. 7.
Plates were incubated at 37° C. for 36 h for selecting candidate pathways that would convert 2-KLG to AsA. (Alternatively, selection can be done at 30° C.)
Among 500,000 clones to which a first selection round was applied, approximately 100 colonies of various sizes appeared on 2-KLG/IPTG plates. These were re-streaked on: (i) LB-kanamycin to verify the presence of the cosmid vector; (ii) 2-KLG/IPTG; and (iii) 2-KLG lacking IPTG to determine if growth of the positive clones on 2-KLG was dependent upon the expression of AsA catabolism. […]

Row | Structure (SMILES) | Utilization as sole source of carbon and energy / growth [1] | Growth on M9 minimal medium ([2]; MGK003, AsA 0.25% and IPTG 10 to 100 μM) | Growth on M9 minimal medium ([2]; MGK003, AsA 0.25%, lacking IPTG) | Growth of two retained clones ([3]; 2-KLG without IPTG) | Growth of two retained clones ([3]; 2-KLG/IPTG)
1 | O=C1O[C@H]([C@@H](O)CO)C(O)=C1O [AsA, ascorbic acid] | could utilize AsA as its sole source of carbon and energy | able to grow | no growth | – | –
2 | O=C(O)C(=O)[C@@H](O)[C@H](O)[C@@H](O)CO [2-KLG, 2-keto-L-gulonate] | could not grow on 2-KLG | – | – | not on 2-KLG without IPTG | grew
